In publication PMC3639963, “A New Class of Small Molecule Inhibitor of BMP Signaling” (PLoS ONE, 2013) one finds inhibition data, which are given here for two compounds.

Holding throughout (assay): Nanosyn kinase profiling
Format in all cases: biochemical
Common to all, as to conditions: read-out: Percentage inhibition; for inhibition at 0.1 µM: 0.1 µM inhibitor; for inhibition at 1 µM: 1 µM inhibitor

One assay deals with T1, RSK1 (Homo sapiens, UniProt Q15418).
T1 construct: purchased Nanosyn (enzymatic panel); SGC in-house recombinant human kinases (DSF panel); Invitrogen (ALK1-6)
T1 sequence (Q15418 whole entry): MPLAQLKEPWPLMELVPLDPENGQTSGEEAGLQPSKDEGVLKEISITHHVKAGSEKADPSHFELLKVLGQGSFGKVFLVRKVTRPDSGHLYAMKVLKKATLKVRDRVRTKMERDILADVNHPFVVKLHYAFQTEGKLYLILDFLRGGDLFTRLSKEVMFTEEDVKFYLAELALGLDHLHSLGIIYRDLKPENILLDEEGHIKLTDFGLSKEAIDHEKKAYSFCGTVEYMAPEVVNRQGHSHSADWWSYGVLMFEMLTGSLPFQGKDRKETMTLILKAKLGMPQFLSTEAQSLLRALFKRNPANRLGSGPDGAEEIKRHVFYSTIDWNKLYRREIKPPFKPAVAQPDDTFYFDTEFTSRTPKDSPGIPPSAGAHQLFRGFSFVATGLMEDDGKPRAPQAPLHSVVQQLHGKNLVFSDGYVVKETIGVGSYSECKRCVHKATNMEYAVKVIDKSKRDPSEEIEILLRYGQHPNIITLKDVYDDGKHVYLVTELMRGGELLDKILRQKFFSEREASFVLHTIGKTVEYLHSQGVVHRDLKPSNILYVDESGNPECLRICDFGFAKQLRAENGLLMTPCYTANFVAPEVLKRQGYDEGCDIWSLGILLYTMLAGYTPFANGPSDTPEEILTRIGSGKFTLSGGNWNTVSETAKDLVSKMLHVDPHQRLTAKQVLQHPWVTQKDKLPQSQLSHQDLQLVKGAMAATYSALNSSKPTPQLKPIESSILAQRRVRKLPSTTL
A digest of the protocol:
(§1)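 Percent inhibition of each kinase was measured with the inhibitor at 0.1 µM and at 1 µM, as part of a 200-kinase human selectivity panel.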

In another assay the target is T2, CDK2/cycA (Homo sapiens, UniProt P24941).
T2 construct: purchased Nanosyn (enzymatic panel); SGC in-house recombinant human kinases (DSF panel); Invitrogen (ALK1-6)
Summed up:
as §1

The next assay concerns the target T3, PAK3 (Homo sapiens, UniProt O75914).
T3 construct: purchased Nanosyn (enzymatic panel); SGC in-house recombinant human kinases (DSF panel); Invitrogen (ALK1-6)
Summed up: as §1

In a further assay the target is T4, NEK1 (Homo sapiens, UniProt Q96PY6).
T4 construct: purchased Nanosyn (enzymatic panel); SGC in-house recombinant human kinases (DSF panel); Invitrogen (ALK1-6)
T4 sequence (Q96PY6 1-1258): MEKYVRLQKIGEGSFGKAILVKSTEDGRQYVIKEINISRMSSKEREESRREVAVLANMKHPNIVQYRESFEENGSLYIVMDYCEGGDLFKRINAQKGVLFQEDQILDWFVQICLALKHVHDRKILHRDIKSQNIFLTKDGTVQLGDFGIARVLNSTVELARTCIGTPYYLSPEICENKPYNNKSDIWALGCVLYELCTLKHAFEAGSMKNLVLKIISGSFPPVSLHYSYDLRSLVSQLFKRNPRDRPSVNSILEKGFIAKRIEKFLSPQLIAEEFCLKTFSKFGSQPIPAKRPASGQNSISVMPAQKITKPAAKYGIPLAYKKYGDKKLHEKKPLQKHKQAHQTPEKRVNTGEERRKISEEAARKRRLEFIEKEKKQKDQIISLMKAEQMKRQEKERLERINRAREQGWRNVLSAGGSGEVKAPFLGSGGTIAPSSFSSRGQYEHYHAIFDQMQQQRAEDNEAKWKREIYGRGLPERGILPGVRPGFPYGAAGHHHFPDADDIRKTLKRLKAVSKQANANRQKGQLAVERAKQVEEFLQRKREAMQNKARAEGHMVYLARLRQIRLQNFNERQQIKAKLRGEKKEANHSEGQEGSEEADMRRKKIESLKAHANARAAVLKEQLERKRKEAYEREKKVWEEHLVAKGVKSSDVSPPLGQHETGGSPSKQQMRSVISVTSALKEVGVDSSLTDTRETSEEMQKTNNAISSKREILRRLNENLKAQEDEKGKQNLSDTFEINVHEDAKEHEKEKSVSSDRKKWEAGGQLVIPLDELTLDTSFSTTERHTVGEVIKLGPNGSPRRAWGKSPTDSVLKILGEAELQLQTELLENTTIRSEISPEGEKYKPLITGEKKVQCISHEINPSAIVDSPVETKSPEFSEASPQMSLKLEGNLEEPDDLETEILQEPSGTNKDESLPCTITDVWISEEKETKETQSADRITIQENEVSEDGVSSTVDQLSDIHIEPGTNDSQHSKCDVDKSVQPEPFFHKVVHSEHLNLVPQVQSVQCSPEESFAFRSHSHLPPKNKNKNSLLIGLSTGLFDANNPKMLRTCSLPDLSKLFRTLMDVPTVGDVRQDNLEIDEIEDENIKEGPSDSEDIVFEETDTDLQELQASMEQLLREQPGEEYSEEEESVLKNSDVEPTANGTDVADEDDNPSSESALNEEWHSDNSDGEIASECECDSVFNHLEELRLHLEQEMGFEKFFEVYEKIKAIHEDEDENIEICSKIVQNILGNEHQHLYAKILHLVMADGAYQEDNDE
A digest of the protocol: as §1

The target of a further assay is T5, CK2 (Homo sapiens, UniProt P68400).
T5 construct: purchased Nanosyn (enzymatic panel); SGC in-house recombinant human kinases (DSF panel); Invitrogen (ALK1-6)
T5 sequence (P68400 whole entry): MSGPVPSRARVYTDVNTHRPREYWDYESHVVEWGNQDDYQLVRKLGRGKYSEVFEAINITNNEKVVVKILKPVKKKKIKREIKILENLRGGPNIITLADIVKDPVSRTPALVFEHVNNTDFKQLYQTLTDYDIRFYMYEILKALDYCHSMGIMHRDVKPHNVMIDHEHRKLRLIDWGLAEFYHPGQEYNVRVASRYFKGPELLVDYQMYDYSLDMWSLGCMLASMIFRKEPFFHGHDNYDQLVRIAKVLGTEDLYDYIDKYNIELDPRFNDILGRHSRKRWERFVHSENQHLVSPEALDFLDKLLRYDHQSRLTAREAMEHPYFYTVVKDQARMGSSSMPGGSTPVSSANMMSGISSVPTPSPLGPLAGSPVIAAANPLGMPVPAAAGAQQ
T5 sequence (P67870 whole entry partner): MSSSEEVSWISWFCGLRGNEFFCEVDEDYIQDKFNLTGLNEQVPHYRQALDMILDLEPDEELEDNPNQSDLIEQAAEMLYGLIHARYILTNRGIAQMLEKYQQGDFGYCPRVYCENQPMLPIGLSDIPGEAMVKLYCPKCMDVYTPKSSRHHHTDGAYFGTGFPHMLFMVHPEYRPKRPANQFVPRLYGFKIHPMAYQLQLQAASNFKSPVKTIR
A digest of the protocol: as §1

Another assay deals with T6, CDK1/cycB (Homo sapiens, UniProt P06493).
T6 construct: purchased Nanosyn (enzymatic panel); SGC in-house recombinant human kinases (DSF panel); Invitrogen (ALK1-6)
T6 sequence (P06493 whole entry): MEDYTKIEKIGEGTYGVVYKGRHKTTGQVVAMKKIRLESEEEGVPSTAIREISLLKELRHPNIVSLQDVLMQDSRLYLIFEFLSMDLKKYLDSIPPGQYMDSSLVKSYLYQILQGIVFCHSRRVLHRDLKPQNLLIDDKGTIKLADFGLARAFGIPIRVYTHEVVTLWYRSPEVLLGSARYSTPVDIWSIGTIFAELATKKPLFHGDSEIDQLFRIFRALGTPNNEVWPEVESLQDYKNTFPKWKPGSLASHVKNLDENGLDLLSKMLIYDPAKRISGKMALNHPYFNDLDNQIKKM
T6 sequence (P14635 whole entry partner): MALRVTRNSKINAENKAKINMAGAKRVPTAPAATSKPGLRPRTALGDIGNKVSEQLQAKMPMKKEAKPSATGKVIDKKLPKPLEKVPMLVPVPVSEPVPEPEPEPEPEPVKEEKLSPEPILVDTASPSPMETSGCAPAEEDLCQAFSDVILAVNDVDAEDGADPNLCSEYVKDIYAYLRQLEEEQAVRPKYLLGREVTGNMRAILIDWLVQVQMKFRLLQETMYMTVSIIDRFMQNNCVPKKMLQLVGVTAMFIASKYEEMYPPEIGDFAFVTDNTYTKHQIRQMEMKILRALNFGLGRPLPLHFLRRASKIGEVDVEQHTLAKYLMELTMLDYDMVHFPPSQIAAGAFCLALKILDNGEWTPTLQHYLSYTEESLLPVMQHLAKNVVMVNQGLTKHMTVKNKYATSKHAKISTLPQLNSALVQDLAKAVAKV
A digest of the protocol:
as §1

For another assay, the target named is T7, AKT2 (Homo sapiens, UniProt P31751).
T7 construct: purchased Nanosyn (enzymatic panel); SGC in-house recombinant human kinases (DSF panel); Invitrogen (ALK1-6)
T7 sequence (P31751 whole entry): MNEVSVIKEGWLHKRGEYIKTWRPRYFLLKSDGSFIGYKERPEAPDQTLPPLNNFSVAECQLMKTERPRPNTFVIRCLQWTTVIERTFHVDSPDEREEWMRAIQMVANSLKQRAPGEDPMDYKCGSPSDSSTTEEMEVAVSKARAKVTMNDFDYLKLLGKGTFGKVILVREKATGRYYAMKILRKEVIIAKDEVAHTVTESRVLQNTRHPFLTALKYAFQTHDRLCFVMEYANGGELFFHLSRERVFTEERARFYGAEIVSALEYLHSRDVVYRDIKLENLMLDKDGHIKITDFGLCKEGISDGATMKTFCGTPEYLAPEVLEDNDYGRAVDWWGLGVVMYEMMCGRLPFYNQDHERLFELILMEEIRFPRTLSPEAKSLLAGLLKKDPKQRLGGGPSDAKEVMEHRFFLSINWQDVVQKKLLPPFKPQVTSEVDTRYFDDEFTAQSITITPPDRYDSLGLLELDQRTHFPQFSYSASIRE
A digest of the protocol:
as §1

The next assay concerns the target T8, PHKγ2 (Homo sapiens, UniProt P15735).
T8 construct: purchased Nanosyn (enzymatic panel); SGC in-house recombinant human kinases (DSF panel); Invitrogen (ALK1-6)
T8 sequence (P15735 1-406): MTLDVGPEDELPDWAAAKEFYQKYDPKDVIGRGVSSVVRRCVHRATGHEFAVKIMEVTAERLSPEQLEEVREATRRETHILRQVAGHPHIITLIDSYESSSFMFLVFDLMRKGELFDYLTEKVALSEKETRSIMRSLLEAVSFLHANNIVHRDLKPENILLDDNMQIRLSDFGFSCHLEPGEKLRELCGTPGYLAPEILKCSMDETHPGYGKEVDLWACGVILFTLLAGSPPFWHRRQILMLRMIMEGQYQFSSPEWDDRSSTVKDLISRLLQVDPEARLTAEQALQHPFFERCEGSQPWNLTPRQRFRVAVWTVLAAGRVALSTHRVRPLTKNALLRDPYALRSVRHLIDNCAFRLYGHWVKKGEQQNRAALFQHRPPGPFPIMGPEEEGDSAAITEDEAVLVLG
A digest of the protocol:
as §1

A further assay deals with T9, PKCη (Homo sapiens, UniProt P24723).
T9 construct: purchased Nanosyn (enzymatic panel); SGC in-house recombinant human kinases (DSF panel); Invitrogen (ALK1-6)
Summed up:
as §1

The target in the next assay is T10, FYN (Homo sapiens, UniProt P06241).
T10 construct: purchased Nanosyn (enzymatic panel); SGC in-house recombinant human kinases (DSF panel); Invitrogen (ALK1-6)
T10 sequence (P06241 whole entry): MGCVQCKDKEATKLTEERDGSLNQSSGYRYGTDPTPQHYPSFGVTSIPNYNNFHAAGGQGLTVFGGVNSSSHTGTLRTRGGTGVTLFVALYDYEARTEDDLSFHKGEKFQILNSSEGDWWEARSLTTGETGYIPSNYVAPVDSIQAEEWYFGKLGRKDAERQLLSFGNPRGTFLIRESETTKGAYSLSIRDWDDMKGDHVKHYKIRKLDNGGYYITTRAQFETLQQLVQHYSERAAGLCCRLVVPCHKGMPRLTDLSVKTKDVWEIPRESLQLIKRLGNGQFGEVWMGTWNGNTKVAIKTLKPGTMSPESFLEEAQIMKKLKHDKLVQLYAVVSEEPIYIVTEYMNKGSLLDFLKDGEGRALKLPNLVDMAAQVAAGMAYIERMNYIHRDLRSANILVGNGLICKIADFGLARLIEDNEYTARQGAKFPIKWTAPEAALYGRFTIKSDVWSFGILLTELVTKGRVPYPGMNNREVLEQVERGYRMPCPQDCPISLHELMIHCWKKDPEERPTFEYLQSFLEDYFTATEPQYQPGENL
A digest of the protocol:
as §1

A further assay deals with T11, CDK6/cycD3 (Homo sapiens, UniProt Q00534).
T11 construct: purchased Nanosyn (enzymatic panel); SGC in-house recombinant human kinases (DSF panel); Invitrogen (ALK1-6)
T11 sequence (Q00534 whole entry): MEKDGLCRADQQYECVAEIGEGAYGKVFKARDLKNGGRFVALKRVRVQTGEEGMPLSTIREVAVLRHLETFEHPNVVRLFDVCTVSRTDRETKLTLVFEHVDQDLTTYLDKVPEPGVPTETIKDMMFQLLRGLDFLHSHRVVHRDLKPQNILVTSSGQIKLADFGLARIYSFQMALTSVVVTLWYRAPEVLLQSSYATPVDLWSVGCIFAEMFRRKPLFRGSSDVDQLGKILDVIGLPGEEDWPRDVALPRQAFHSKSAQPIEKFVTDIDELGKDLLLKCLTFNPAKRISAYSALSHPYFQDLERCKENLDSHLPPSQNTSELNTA
T11 sequence (P30281 whole entry partner): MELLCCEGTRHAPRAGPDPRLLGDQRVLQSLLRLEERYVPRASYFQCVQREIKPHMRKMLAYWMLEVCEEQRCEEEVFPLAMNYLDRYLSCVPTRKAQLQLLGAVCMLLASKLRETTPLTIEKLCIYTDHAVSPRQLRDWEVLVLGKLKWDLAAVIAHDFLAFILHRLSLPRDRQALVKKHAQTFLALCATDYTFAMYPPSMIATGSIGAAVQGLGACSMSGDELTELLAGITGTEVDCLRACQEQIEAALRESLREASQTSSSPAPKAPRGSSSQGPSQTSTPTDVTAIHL
Summed up:
as §1

A further assay deals with T12, PKCα (Homo sapiens, UniProt P17252).
T12 construct: purchased Nanosyn (enzymatic panel); SGC in-house recombinant human kinases (DSF panel); Invitrogen (ALK1-6)
A digest of the protocol:
as §1

T3 sequence (O75914 whole entry): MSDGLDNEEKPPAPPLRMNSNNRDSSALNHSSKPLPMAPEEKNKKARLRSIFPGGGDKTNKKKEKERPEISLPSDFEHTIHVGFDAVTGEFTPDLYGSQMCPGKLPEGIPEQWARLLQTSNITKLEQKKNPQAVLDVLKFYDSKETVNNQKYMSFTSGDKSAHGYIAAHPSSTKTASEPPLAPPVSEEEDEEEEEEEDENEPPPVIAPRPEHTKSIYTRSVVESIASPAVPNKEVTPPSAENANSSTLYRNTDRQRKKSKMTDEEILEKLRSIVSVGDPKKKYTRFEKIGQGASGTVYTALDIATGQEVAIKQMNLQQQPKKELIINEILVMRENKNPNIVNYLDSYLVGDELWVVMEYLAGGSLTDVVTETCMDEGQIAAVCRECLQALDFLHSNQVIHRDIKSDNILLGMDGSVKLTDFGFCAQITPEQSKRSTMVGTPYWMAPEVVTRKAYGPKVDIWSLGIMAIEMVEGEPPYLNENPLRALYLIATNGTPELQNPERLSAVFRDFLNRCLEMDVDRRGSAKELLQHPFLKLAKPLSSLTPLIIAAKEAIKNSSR

As usually defined, the inhibition is the relative decrease from the control value, in per cent. With `COc1cc(-c2cc(-c3cccc(O)c3)cnc2N)cc(OC)c1OC` [K02288, 3-[6-amino-5-(3,4,5-trimethoxy-phenyl)-pyridin-3-yl]-phenol], the inhibition at 0.1 µM at RSK1 is 0.8%; at CDK2/cycA, 0%; on PAK3, -3%; at NEK1, -1%; on CK2, 6.2%; on CDK1/cycB, 1%. Also, the inhibition at 0.1 µM was -2% at AKT2; -3% on PHKγ2; -2% at PKCη; 10% at FYN; 1.7% at CDK6/cycD3; 0.2% at PKCα. In addition, the inhibition at 1 µM at RSK1 was 1.8%; on CDK2/cycA it was 0%; at PAK3 it was -2%; at NEK1, 0.8%; on CK2, 2.8%; on CDK1/cycB, 1.5%. Also, the inhibition at 1 µM is -1% on AKT2; -3% on PHKγ2; -4% at PKCη; 43% at FYN; 2.8% at CDK6/cycD3; 2.2% on PKCα.
In the case of `c1ccc2c(-c3cnn4cc(-c5ccc(N6CCNCC6)cc5)cnc34)ccnc2c1` [LDN-193189], the inhibition at 0.1 µM is 0.6% on RSK1; 1.2% on CDK2/cycA; 2.9% on PAK3; 2.1% on NEK1; 0.7% on CK2; 0.5% at CDK1/cycB. Moreover, the inhibition at 0.1 µM was determined as 1% on AKT2; 3.5% at PHKγ2; 2.2% at PKCη; 18% on FYN; 7.2% on CDK6/cycD3; 1% on PKCα. Further, the inhibition at 1 µM was 8% at RSK1; 4.1% at CDK2/cycA; 1.8% at PAK3; 3.4% at NEK1; 4.2% on CK2; 5% at CDK1/cycB. For the same compound, the inhibition at 1 µM at AKT2 was 1.8%; on PHKγ2, 4.9%; at PKCη it was -2%; at FYN it was 60%; on CDK6/cycD3, 22%; on PKCα it was 1.1%.
